Source: US10709140B2, “Methods and products for reducing the population size of Papilio demoleus L. (papilionidae)” (The University of The West Indies, priority 2010, dated 2020)

Columns and labels:
P. demoleus [1] = assay: Egg laying by P. demoleus on Piper aduncum cuttings sprayed with lime oil or d-limonene (choice test, Example 5); format: in vivo, Papilio demoleus
Protocol: Five P. demoleus pupae were placed in the cage. Upon hatching, the emerging adults were determined to be 3 males and 2 females. The butterflies were allowed to mate and given a choice of plants on which to lay by placing all around the cage unsprayed lime seedlings, unsprayed Piper aduncum cuttings, Piper aduncum cuttings sprayed with lime oil, and Piper aduncum cuttings sprayed with d-limonene. Egg laying was allowed to continue for up a total of 16 days, only the first 8 of which the Piper aduncum shoots remained fresh. Referring to Table 5A, a total of 16 eggs were laid in the first 8 days. The majority of eggs (62.5%) were laid on unsprayed lime plant. However, a significant number of eggs were laid on sprayed Piper aduncum shoots (37.5%). […] No eggs were laid on unsprayed Piper aduncum.
After day 8, the Piper aduncum leaves began to wilt and were noticeably less attractive to gravid females. […] By day 20, no more eggs were laid, and the total number of eggs was counted.
All of the eggs that were laid on lime plant hatched into larvae that fed normally on the lime plant leaves on which they were laid. The 6 eggs laid on Piper aduncum shoots sprayed with lime oil or d-limonene hatched normally. The Piper aduncum shoots were still young, fresh, and otherwise capable of sustaining larvae when the eggs laid eggs on sprayed Piper aduncum shoots hatched. […]

P. demoleus [2] = assay: Induced egg laying of P. demoleus on Piper amalago var. amalago plant sprayed with lime plant oil (choice test, Example 2); format: in vivo, Papilio demoleus; settings: Piper amalago var. amalago plant sprayed with the attractant
From the text: P. demoleus were induced to lay eggs on Piper amalago var. amalago plant to confirm its unsuitability to sustain target insects and to determine whether it could be used to reduce the population size of target insects. Natural Piper amalago var. amalago plant was considered a suitable non-host plant because P. demoleus would not feed or breed on it in the wild.
Twelve pupae bred on lime plants were placed in the laying cage and were allowed to mate. Gravid females were given a choice of plants on which to lay: unsprayed lime, unsprayed Piper amalago var. amalago plant, and Piper amalago var. amalago plant sprayed with lime plant oil. Piper amalago var. amalago plant sprayed with lime plant oil was prepared using an aerosol spray containing 0.45% by weight lime plant oil in a hydrocarbon mixture. The aerosol mixture was applied to the young leaves of Piper amalago var. amalago plants twice daily.
Gravid females were allowed to lay eggs until the laying subsided on the tenth day. Of the 95 eggs laid, the majority were laid on Piper amalago var. amalago plant sprayed with lime oil. Sixty-one eggs, or 64%, were laid on Piper amalago var. amalago plant sprayed with lime oil. Only 34 eggs, or 36%, were laid on unsprayed lime plant. No eggs were laid on unsprayed Piper amalago var. amalago plant. […]

## C=C(C)[C@H]1CC=C(C)CC1 [d-limonene]
P. demoleus [1]; Days 1-8, choice vs unsprayed lime and unsprayed Piper aduncum, total 16 eggs
  eggs laid on sprayed Piper aduncum: 3 eggs
P. demoleus [1]; Days 9-20 as titled, total 39 eggs
  eggs laid on sprayed Piper aduncum: 3 eggs
P. demoleus [2]
  breeding and feeding on sprayed Piper amalago var. amalago plants: majority of the P. demoleus population was induced to breed, but not feed
